Earlier results on one compound are cited in patent US20240016803A1, “PHARMACEUTICAL COMPOSITION COMPRISING EICOSAPENTAENOIC ACID AND DERIVATIVES THEREOF AND A STATIN” (Amarin Pharmaceuticals Ireland Limited, priority 2013, published 2024).

For the series the following is noted: repeated twice-daily dosing of 2 icosapent ethyl 1 g capsules (4 g/d total); previously reported.

Each structure is given as a SMILES string.

On to `CC/C=C\C/C=C\C/C=C\C/C=C\C/C=C\CCCC(=O)OCC` [icosapent ethyl], for which the “mean elimination half-life (t1/2) for total plasma EPA” value was 89 h.
